Data as given in US9874558B2, “Immunoassay method less affected by impurities” (Konica Minolta, Inc., priority 2012, dated 2018).
pKd: −log10 of the molar value.

What was measured:
[1] = molecular target: T1, Wisteria floribunda lectin (WFA) (Wisteria floribunda, UniProt A0A218PFP3); assay: SPFS sandwich immunoassay of PSA with labeled WFA, added competing sugar chain compound, S/N ratio; conditions: PSA in commercially available serum, sugar chain compound 0.1% by weight in PBS for 10 minutes, none: S/N 2
T1 sequence (A0A218PFP3 31-273): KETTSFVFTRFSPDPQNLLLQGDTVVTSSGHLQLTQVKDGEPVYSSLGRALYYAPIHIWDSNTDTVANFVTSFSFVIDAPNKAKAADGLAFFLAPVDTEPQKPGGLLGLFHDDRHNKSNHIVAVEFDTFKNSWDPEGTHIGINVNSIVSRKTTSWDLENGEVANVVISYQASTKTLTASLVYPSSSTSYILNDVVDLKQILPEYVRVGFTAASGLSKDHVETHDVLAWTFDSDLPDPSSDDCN
Procedure: Antigen Addition Step: To one of the thus prepared sensor chip, 0.5 mL of a solution having a PSA concentration of 1.0 ng/mL, which was prepared by diluting the LNCaP culture supernatant with a commercially available serum (manufactured by Kohjin Bio Co., Ltd.), was added and circulated for 25 minutes in place of PBS. To the other sensor chip, a commercially available serum (manufactured by Kohjin Bio Co., Ltd.) containing no LNCaP culture supernatant was added and circulated for 25 minutes.
Washing Step: Each sensor chip was washed by circulating TBS containing 0.05% by weight of Tween 20 as a transfer liquid. Here, using a laser light source, the metal thin films of the sensor chip were irradiated with laser light having a wavelength of 635 nm, whose photon amount was adjusted by an optical filter (manufactured by Sigmakoki Co., Ltd.), through a prism (“S-LAL 10” manufactured by Ohara Inc. (refractive index [n]=1.72)), and the blank fluorescence was detected using a CCD image sensor (manufactured by Texas Instruments Inc.) equipped with a cut filter for cutting light having wavelengths of non-fluorescent components and an objective lens (×20). […]
Further, also for each of the following cases, the same experiment as described above was carried out and the S/N ratio was determined: […]

[2] = molecular target: T2, Lens culinaris lectin (LCA) (Lens culinaris, UniProt P02870); assay: Dissociation constant (Kd) with labeled LCA lectin; type: binding; conditions: between sugar chain compound to be added and labeled lectin LCA; target compound AFP; read-out: Dissociation constant (Kd) x
T2 sequence (P02870 31-211 limits assumed): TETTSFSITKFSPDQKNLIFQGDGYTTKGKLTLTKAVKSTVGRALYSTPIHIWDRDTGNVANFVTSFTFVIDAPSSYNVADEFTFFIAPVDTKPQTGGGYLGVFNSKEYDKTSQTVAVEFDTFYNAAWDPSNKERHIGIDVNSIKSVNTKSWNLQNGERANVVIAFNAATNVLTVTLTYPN
T2 sequence (P02870 218-269 limits assumed): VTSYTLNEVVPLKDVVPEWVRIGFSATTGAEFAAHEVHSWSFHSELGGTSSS
Description: In the present invention, the dissociation constant is defined as follows.
The binding between a sugar chain compound (A) and a lectin (B) occurs through a reversible reaction, and the following formula is established in an equilibrium state (wherein, [A] represents the concentration of the sugar chain compound (mol/L); [B] represents the concentration of the lectin (mol/L); and [A−B] represents the concentration of conjugates formed between the sugar chain compound and the lectin (mol/L)). [A−B]⇄[A]+[B]
In this case, the dissociation constant, Kd, between the sugar chain compound (A) and the lectin (B) is represented by the following equation: Kd=[A]×[B]/[A−B]

[3] = molecular target: T2, Lens culinaris lectin (LCA); assay: SPFS sandwich immunoassay of AFP with labeled LCA, added competing sugar chain compound, S/N ratio; conditions: AFP 3.0 ng/mL in commercially available serum, sugar chain compound 0.1% by weight in PBS for 10 minutes, none: S/N 2

| SMILES | S/N [1] | pKd [2] | S/N [3] |
| --- | --- | --- | --- |
| CC(C)CCCC(C)C1CCC2C3CC=C4CC(OC(=O)NCCOC5OC(C)[C@@H](O)C(O)[C@H]5O)CC[C@]4(C)C3CC[C@]12C (stereo partly drawn) [Fuc-2-Chol] | 3 | – | – |
| CC(C)CCCC(C)C1CCC2C3CC=C4CC(OC(=O)NCCOC5OC(CO)[C@H](O)C(O)[C@@H]5O)CC[C@]4(C)C3CC[C@]12C (stereo partly drawn) [Man-2-Chol] | – | 3.66 | 3 |
